Assay results published in patent US12285399B2, “Composition comprising bornyl acetate or pharmaceutically acceptable salt thereof as active ingredient for prevention or treatment of stress-related disorder” (UNIVERSITY-INDUSTRY COOPERATION GROUP OF KYUNG HEE …, priority 2019, dated 2025).

Assays:
Assay type in all cases: in vivo, C57BL/6NTac mice
[1] = system: animal model of stress depression induced by chronic restrained stress (CRS); assay: Tail suspension test (TST) in CRS-induced stress depression model; conditions: CRS+BA group, oral daily 1 hour before restraint, day 14, last 4 minutes of 6-minute test; dose not stated
Protocol: In order to confirm the antidepressant efficacy of bornyl acetate on the animal model of stress depression, an animal model of depression induced by chronic restrained stress (CRS) was prepared. Specifically, the animal model, 8-week-old male C57BL/6NTac mice after birth (Narabiotechnology, Korea; weight 22-24 g) had been stabilized for 1 week. A 50 ml conical tube (SPL Life sciences, Pocheon, Korea) was punched to make a hole, thereby making a restraint frame. The mice were put in the frame and restrained for 2 hours every day for 14 days. After restraint, the mice were allowed to freely ingest water and food in the home cage. On the 14th day after chronic restrained stress was induced, the tail tip of the mouse was fixed and hanged upside down on a horizontal bar (1 cm in diameter) installed at a height of about 50 cm from the floor, and then the time of immobility was measured. Measurements were made during the last 4 minutes of the 6-minute test period. Bornyl acetate (25, 50 and 100 mg/kg) of the present invention was dissolved in 0.1 M PBS, and the mixture was orally administered 1 hour before inducing restrained stress every day. Bornyl acetate was administered in a dose per individual of 100 μl.

[2] = system: animal model of stress depression induced by chronic restrained stress (CRS); assay: Forced swimming test (FST) in CRS-induced stress depression model; conditions: CRS+BA group, oral daily 1 hour before restraint, 24 hours after TST, last 4 minutes of 6-minute test; dose not stated
Protocol: In order to confirm the antidepressant efficacy of bornyl acetate on the animal model of stress depression, an animal model of depression induced by chronic restrained stress (CRS) was prepared. Specifically, the animal model, 8-week-old male C57BL/6NTac mice after birth (Narabiotechnology, Korea; weight 22-24 g) had been stabilized for 1 week. A 50 ml conical tube (SPL Life sciences, Pocheon, Korea) was punched to make a hole, thereby making a restraint frame. The mice were put in the frame and restrained for 2 hours every day for 14 days. After restraint, the mice were allowed to freely ingest water and food in the home cage. 24 hours after the tail suspension test, distilled water (23-24° C.) was filled to a height of about 14 cm in a circular water tank (diameter 15×height 25 cm), and the mice were dropped and forced to swim. […] Bornyl acetate (25, 50 and 100 mg/kg) of the present invention was dissolved in 0.1 M PBS, and the mixture was orally administered 1 hour before inducing restrained stress every day. Bornyl acetate was administered in a dose per individual of 100 μl.

COX-2 mRNA = assay: RT-PCR of COX-2 mRNA in brain (hippocampus and amygdala) of CRS model; conditions: CRS+BA group, 100 mg/kg oral
Protocol: In order to confirm the antidepressant efficacy of bornyl acetate on the animal model of stress depression, an animal model of depression induced by chronic restrained stress (CRS) was prepared. Specifically, the animal model, 8-week-old male C57BL/6NTac mice after birth (Narabiotechnology, Korea; weight 22-24 g) had been stabilized for 1 week. A 50 ml conical tube (SPL Life sciences, Pocheon, Korea) was punched to make a hole, thereby making a restraint frame. The mice were put in the frame and restrained for 2 hours every day for 14 days. After restraint, the mice were allowed to freely ingest water and food in the home cage.
In order to confirm the inhibitory effect of bornyl acetate on the expression of inflammatory mediators in an animal model of depression induced by chronic restrained stress, mRNA expression was confirmed using reverse transcription-polymerase chain reaction (RT-PCR). Bornyl acetate (100 mg/kg) was orally administered 1 hour before inducing the restrained stress every day. […]
Western blot and RT-PCR analysis were performed in the brain (hippocampus and amygdala) of an animal model of chronic restrained stress (CRS)-induced stress depression to exam and quantify the activation level of inflammatory mediators, thereby verifying the modulating effect of bornyl acetate on the inflammatory response in the brain. […]

## CC(=O)OC1CC2CCC1(C)C2(C)C (stereo not shown) [BA, bornyl acetate]
[1]
  time of immobility, tail suspension test: 91.4 s
[2]
  time of immobility, forced swimming test: 85.2 s
COX-2 mRNA; amygdala
  mRNA expression of COX-2 (CRS-induced increase): significantly inhibited
COX-2 mRNA; hippocampus
  mRNA expression of COX-2 (CRS-induced increase): significantly inhibited
